Values joined by “and” are separate entries in the source; they are usually repeats but may differ in a detail not shown here. Equal entries are not always repeated. Where two headings read alike, the source gives them in different places.
Assays:
primary CLL specimens = assay: Viability of primary CLL specimens, Annexin V/7-AAD; type: cell-based; details: Homo sapiens, 24 h; read-out: mean viability relative to untreated controls
[1] = test system: primary blast crisis CML (bcCML) specimens; assay: Viability of primary bcCML specimens, Annexin V/7-AAD; type: cell-based; details: Homo sapiens, 24 h; read-out: mean viability relative to untreated controls
[2] = Viability of normal specimens (BM, CB, MPB), Annexin V/7-AAD; type: cell-based, human; details: human; read-out: cell viability relative to untreated controls
Experimental: (§1) The cells were isolated and processed as described. […] All drug treatments were performed in triplicate. […] Total viable cell numbers were determined using a flow cytometric apoptosis assay as described. Briefly, after 18 h of treatment, specimens were labeled with anti-CD34-PE (Becton Dickinson, San Jose, Calif.) for 20 minutes. […] The total number of events collected was 100,000. The percent viable cells was defined as AnnexinV^neg/7-AAD^neg cells on total (ungated) cells and on gates set for CD34^+ populations. • [1] Jordan, C. T., et al., The interleukin-3 receptor alpha chain is a unique marker for human acute myelogenous leukemia stem cells. Leukemia, 2000. 14(10): p. […] Lansdorp, P. M. and W. Dragowska, Long-term erythropoiesis from constant numbers of CD34+ cells in serum-free cultures initiated with highly purified progenitor cells from human bone marrow. […] Guzman, M. L., et al., Nuclear factor-kappaB is constitutively activated in primitive human acute myelogenous leukemia cells. […] 98(8): p.

[3] = test system: normal specimens (BM, CB, MPB); assay: as above; type: cell-based, human; details: normal specimens
Experimental: as §1

bcCML progenitor cells = assay: Methylcellulose colony assay, bcCML; type: cell-based, human; details: 20 μM TDZD-8, 18 hours before plating, n=3
Experimental: Cells were then plated at 50,000 cells/ml in Methocult™ GF H4534 (1% methylcellulose in IMDM, 30% FBS, 1% BSA, 10^−4M 2-mercaptoethanol, 2 mM L-glutamine, 50 ng/ml rh stem cell factor, 10 ng/ml rh GM-CSF, 10 ng/ml rh IL-3-Stem Cell Technologies, Vancouver, B.C.) supplemented with 3 units/ml of erythropoietin and 50 ng/ml G-CSF (R&D Systems, Minneapolis, Minn.). Colonies were scored after 10-14 days of culture.

[4] = test system: primary AML, ALL and CLL specimens; assay: Free thiol analysis by mBBr labeling, leukemia specimens; type: cell-based, human; details: 20 μM TDZD-8, as early as 30 minutes after exposure
Experimental: (§2) C. […] Intracellular thiol levels were assessed by flow cytometry after labeling with 50 μM monobromobimane (molecular probes).

normal specimens = assay: Free thiol analysis by mBBr labeling, normal specimens; type: cell-based, human; details: 20 μM TDZD-8
Experimental: as §2

[5] = test system: pro-caspases 3, 8 or PARP; assay: Immunoblot for caspase-dependent apoptotic events; type: cell-based, human; details: TDZD-8 treated cells, data not shown
Experimental: Immunoblots. Cells were prepared and analyzed as previously described.^35 Membrane fractions were prepared using mem-PER eukaryotic membrane protein extraction kit as per manufacturer's instructions (Pierce; Rockford, Ill.). Blots were probed with phospho-PKC (pan) (beta II; Ser660), phospho-PKCalpha/betaII (Thr638/641), total PKCα, PKCβ and FLT3 (Santa Cruz Biotechnology, Calif.), Caspase-3 (Cell Signaling technologies; Danvers, Mass.); caspase-8 and PARP (BD bioscience), cleaved PARP (abcam) or anti-actin (AC-15; Sigma) antibodies.

[6] = test system: phospho-FLT3 in CD34+ AML cells; assay: Phospho-FLT3 flow cytometry, CD34+ population of primary AML; type: cell-based, human; details: 30 minutes after addition of drug
[7] = test system: Breast cancer, 7 cell lines; assay: NCI-60 screen; type: cell-based; details: Homo sapiens
Excerpt: (§3) In contrast the cell viability for normal specimens was 79.5% (n=13).

CCRF-CEM = assay: NCI-60 screen; type: cell-based; details: Homo sapiens
Excerpt: as §3

CNS cancer, 6 cell lines = assay: NCI-60 screen; type: cell-based; details: Homo sapiens
Excerpt: as §3

[8] = test system: Colon cancer, 7 cell lines; assay: NCI-60 screen; type: cell-based; details: Homo sapiens
Excerpt: as §3

HL-60 = assay: NCI-60 screen; type: cell-based; details: Homo sapiens
Excerpt: as §3

K-562 = assay: NCI-60 screen; type: cell-based; details: Homo sapiens
Excerpt: as §3

Melanoma, 8 cell lines = assay: NCI-60 screen; type: cell-based; details: Homo sapiens
Excerpt: as §3

[9] = test system: Non-small cell lung cancer, 9 cell lines; assay: NCI-60 screen; type: cell-based; details: Homo sapiens
Excerpt: as §3

[10] = test system: Ovarian cancer, 5 cell lines; assay: NCI-60 screen; type: cell-based; details: Homo sapiens
Excerpt: as §3

[11] = test system: Prostate cancer, 2 cell lines; assay: NCI-60 screen; type: cell-based; details: Homo sapiens
Excerpt: as §3

RPMI-8226 = assay: NCI-60 screen; type: cell-based; details: Homo sapiens
Excerpt: as §3

[12] = test system: Renal cancer, 7 cell lines; assay: NCI-60 screen; type: cell-based; details: Homo sapiens
Excerpt: as §3

SR = assay: NCI-60 screen; type: cell-based; details: Homo sapiens
Excerpt: as §3

PRKCB1 (PKC beta I) = PRKCB1 (PKC beta I) (Homo sapiens, UniProt P05771); assay: Kinase assay (single point and titration); type: biochemical
Experimental: (§4) Kinase Assays: Single point and titration assays are performed using protocols (or essentially using protocols) know in the art for kinase activity profiling against a battery of kinase targets, including, for example, those specifically delineated herein. Such assays include, for example, those available from commercial sources, contract research laboratories, and the like.

SRC = SRC (Homo sapiens, UniProt P12931); assay: Kinase assay; type: biochemical
Experimental: as §4

CDK1/cyclin B = CDK1/cyclin B (Homo sapiens, UniProt P06493); details: reported; cited from earlier work
PICA = PICA (Homo sapiens, UniProt P17612); details: reported; cited from earlier work
[13] = read-out: Log10 GI50 (converted)

Chain of PRKCB1 (PKC beta I) (P05771 whole entry): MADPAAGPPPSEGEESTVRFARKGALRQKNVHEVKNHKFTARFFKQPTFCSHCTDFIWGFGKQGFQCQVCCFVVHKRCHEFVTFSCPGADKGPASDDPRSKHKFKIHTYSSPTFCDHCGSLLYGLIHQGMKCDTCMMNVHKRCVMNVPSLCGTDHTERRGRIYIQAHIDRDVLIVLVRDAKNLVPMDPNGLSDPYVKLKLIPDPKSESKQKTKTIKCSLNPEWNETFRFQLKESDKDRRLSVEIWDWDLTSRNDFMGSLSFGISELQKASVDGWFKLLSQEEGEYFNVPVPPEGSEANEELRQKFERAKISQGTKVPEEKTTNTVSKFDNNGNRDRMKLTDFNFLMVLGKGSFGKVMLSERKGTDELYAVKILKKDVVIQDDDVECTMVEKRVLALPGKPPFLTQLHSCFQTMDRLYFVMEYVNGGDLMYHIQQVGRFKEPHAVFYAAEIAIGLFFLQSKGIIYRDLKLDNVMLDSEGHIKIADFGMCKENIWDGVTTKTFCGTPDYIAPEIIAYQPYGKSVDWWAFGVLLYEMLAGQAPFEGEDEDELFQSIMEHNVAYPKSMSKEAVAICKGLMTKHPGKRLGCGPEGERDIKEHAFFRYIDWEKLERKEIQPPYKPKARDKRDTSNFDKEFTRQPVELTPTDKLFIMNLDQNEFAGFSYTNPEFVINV
Chain of SRC (P12931 whole entry, species assumed): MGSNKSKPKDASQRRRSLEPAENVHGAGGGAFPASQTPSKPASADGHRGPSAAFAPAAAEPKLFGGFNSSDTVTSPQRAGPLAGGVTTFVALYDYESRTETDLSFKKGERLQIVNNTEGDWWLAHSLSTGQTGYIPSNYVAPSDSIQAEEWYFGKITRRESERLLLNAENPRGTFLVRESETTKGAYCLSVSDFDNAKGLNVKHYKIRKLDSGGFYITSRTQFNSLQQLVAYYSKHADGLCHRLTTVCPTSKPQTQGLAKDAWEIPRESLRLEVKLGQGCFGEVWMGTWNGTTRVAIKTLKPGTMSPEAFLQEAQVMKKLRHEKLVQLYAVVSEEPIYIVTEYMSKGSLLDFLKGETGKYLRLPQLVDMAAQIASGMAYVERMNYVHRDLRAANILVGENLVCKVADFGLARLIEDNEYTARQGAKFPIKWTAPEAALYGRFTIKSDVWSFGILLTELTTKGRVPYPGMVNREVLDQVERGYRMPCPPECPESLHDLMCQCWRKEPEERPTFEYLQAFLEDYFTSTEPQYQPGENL
Chain of CDK1/cyclin B (P06493 whole entry, species assumed): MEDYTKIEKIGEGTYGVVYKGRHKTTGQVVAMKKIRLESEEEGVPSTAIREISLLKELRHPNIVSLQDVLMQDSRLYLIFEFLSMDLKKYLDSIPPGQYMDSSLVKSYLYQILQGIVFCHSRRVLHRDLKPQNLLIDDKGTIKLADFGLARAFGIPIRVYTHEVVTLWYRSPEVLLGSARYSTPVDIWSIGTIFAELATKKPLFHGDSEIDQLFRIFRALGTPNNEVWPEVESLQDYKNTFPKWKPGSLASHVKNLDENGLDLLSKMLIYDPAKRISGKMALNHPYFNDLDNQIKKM
Chain of CDK1/cyclin B (P14635 whole entry partner, species assumed): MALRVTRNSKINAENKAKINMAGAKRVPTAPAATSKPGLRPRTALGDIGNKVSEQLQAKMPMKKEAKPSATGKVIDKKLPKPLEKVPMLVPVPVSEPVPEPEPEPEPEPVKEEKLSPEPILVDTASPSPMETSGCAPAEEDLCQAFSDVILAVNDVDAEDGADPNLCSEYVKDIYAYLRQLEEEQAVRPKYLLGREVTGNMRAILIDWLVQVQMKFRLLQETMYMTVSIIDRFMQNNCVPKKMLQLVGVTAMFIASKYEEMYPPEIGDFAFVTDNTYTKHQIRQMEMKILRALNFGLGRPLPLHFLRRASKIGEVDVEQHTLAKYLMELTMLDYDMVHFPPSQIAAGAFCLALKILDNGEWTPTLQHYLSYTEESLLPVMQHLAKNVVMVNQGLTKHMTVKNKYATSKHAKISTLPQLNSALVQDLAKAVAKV

Cn1sc(=O)n(Cc2ccccc2)c1=O [TDZD-8, 4-benzyl-2-methyl-1,2,4-thiadiazolidine-3,5-dione] gave a viability at 20 µM (primary CLL specimens) of 7.2%, a viability at 20 µM [1] of 21.6% and a viability at 24 h, 20 μM [2] of 79.5%. The “Cytotoxic Normal” value [3] was “No”, the “CFU, normalized to untreated controls” value (bcCML progenitor cells) was 16.1% and the “mBBr labeling (free thiol groups)” value [4] was “reduction in mBBr labeling is evident”. For the same compound, the “mBBr staining (free thiol groups)” value (normal specimens) was “only slight changes in mBBr staining”, the “cleavage of pro-caspases 3, 8 or PARP” value [5] was “no cleavage of pro-caspases 3, 8 or PARP was detected” and the “inhibition of FLT3 phosphorylation” value [6] was ~30% and 31%. The GI50 ([7]; read-out: GI50) was > 100 µM, the GI50 [7, 13] was > 100 µM and the GI50 (CCRF-CEM; read-out: GI50) was 11.5 µM. For the same compound, the GI50 (CCRF-CEM; [13]) was 11.5 µM, the GI50 (CNS cancer, 6 cell lines; read-out: GI50) was > 100 µM and the GI50 (CNS cancer, 6 cell lines; [13]) was > 100 µM. The GI50 ([8]; read-out: GI50) was > 100 µM, the GI50 [8, 13] was > 100 µM and the GI50 (HL-60; read-out: GI50) was 0.2 µM. The GI50 (HL-60; [13]) was 0.234 µM, the GI50 (K-562; K562, read-out: GI50) was 6.5 µM and the GI50 (K-562; K562, read-out: Log10 GI50 (converted)) was 6.46 µM. For the same compound, the GI50 (Melanoma, 8 cell lines; read-out: GI50) was > 100 µM, the GI50 (Melanoma, 8 cell lines; [13]) was > 100 µM and the GI50 ([9]; read-out: GI50) was > 100 µM. The GI50 [9, 13] was > 100 µM, the GI50 ([10]; read-out: GI50) was > 100 µM and the GI50 [10, 13] was > 100 µM. The GI50 ([11]; read-out: GI50) was > 100 µM, the GI50 [11, 13] was > 100 µM and the GI50 (RPMI-8226; read-out: GI50) was 23.4 µM. The GI50 (RPMI-8226; [13]) was 23.4 µM, the GI50 ([12]; read-out: GI50) was > 100 µM and the GI50 [12, 13] was > 100 µM. It also gave a GI50 (SR; read-out: GI50) of 0.01 µM, a GI50 (SR; [13]) of 0.01 µM and an inhibition at 20 µM (PRKCB1 (PKC beta I)) of 98%. For the same compound, the IC50 (PRKCB1 (PKC beta I); titration, read-out: in vitro IC50) was 1.4 µM, the inhibition at 20 µM (SRC) was 27% and the “% Inhibition mean” value (SRC; TDZD-8 20 μM) was “little to no inhibition”. The IC50 (CDK1/cyclin B) was > 100 µM and the IC50 (PICA) was > 100 µM.

From patent publication US9180118B2, “Thiadiazolidinone derivatives” (University of Rochester, priority 2006, dated 2015)
